Assay [1] deals with SARS-CoV-2 3CL-protease (Severe acute respiratory syndrome coronavirus 2 (2019-nCoV) (SARS-CoV-2), UniProt P0DTD1). In words: SARS-CoV-2 3C-like (3CL) protease fluorescence assay (FRET). To be noted: read-out: FRET IC50. The assay is classed as biochemical.
Assay [2] deals with 229E human corona virus (hCoV). In words: 229E live virus assay. In kind it is cell-based, hCoV-229E. The note with it: Human coronavirus 229E, MRC5, 144 h, read-out: 229E EC50.

For orientation: IC50 means the midpoint of a concentration-inhibition curve. By EC50 is commonly meant the midpoint of the concentration-response curve.

For `CC(C)CC[C@@H](C(=O)N1C[C@]2(C[C@H]1C#N)C(=O)Nc1ccccc12)N(C)C(=O)OCc1ccccc1` [Compound 100], the IC50 in assay [1] was under 100 nM.
Same read-out and setting: next, `CN(C(=O)OCc1ccccc1)[C@@H](CC(C)(C)F)C(=O)N1C[C@]2(C[C@H]1C#N)C(=O)Nc1ccccc12` [Compound 101]: under 100 nM.
On the same count and under the same terms, next, `CN(C(=O)OCc1ccccc1)[C@@H](CC1CC1)C(=O)N1C[C@]2(C[C@H]1C#N)C(=O)Nc1ccccc12` [Compound 102]: under 100 nM; `CC(C)CC[C@@H](C(=O)N1C[C@]2(C[C@H]1C#N)C(=O)Nc1ccccc12)N(C)C(=O)c1cc2c(F)cc(F)cc2[nH]1` [Compound 104]: under 100 nM; `COc1cccc2[nH]c(C(=O)N(C)[C@@H](CCC(C)C)C(=O)N3C[C@]4(C[C@H]3C#N)C(=O)Nc3ccccc34)cc12` [Compound 105]: under 100 nM.
As for `COc1cccc2[nH]c(C(=O)N(C)[C@@H](CC3CCCC3)C(=O)N3C[C@]4(C[C@H]3C#N)C(=O)Nc3ccccc34)cc12` [Compound 106], the IC50 in assay [1] is under 100 nM.
Still for that read-out and setting: as for `CN(C(=O)c1cc2c(F)cc(F)cc2[nH]1)[C@@H](CC1CCCC1)C(=O)N1C[C@]2(C[C@H]1C#N)C(=O)Nc1ccccc12` [Compound 107], the figure is under 100 nM.
Still for that read-out and setting: as for `CN(C(=O)c1cc2c(OC(F)(F)F)cccc2[nH]1)[C@@H](CC1CCCC1)C(=O)N1C[C@]2(C[C@H]1C#N)C(=O)Nc1ccccc12` [Compound 108], the figure is under 100 nM.
On the same count and under the same terms, next, `CN(C(=O)c1cc2c(F)cc(F)c(F)c2[nH]1)[C@@H](CC1CCCC1)C(=O)N1C[C@]2(C[C@H]1C#N)C(=O)Nc1ccccc12` [Compound 109]: under 100 nM.
As for `CN(C(=O)c1cc2c(F)cccc2[nH]1)[C@@H](CC1CCCCC1)C(=O)N1C[C@]2(C[C@H]1C#N)C(=O)Nc1ccccc12` [Compound 110], the IC50 in assay [1] is under 100 nM.
Take `CN(C(=O)c1cc2c(F)cc(F)cc2[nH]1)[C@@H](CC1CCCCC1)C(=O)N1C[C@]2(C[C@H]1C#N)C(=O)Nc1ccccc12` [Compound 111]: in assay [1], the IC50 is under 100 nM.
Still for that read-out and setting: next, `CN(C(=O)c1cc2c(F)c(F)ccc2[nH]1)[C@@H](CC1CCCCC1)C(=O)N1C[C@]2(C[C@H]1C#N)C(=O)Nc1ccccc12` [Compound 112]: under 100 nM; `COc1cccc2[nH]c(C(=O)N(C)[C@@H](CC3CCCCC3)C(=O)N3C[C@]4(C[C@H]3C#N)C(=O)Nc3ccccc34)cc12` [Compound 113]: under 100 nM; `COc1cccc2[nH]c(C(=O)N(C)[C@@H](CC3CC3)C(=O)N3C[C@]4(C[C@H]3C#N)C(=O)Nc3ccccc34)cc12` [Compound 114]: under 100 nM.
On the same count and under the same terms, next, `CN(C(=O)c1cc2c(F)cc(F)cc2[nH]1)[C@@H](CC1CC1)C(=O)N1C[C@]2(C[C@H]1C#N)C(=O)Nc1ccccc12` [Compound 115]: under 100 nM; `CN(C(=O)c1cc2c(F)cccc2[nH]1)[C@@H](CC1CC1)C(=O)N1C[C@]2(C[C@H]1C#N)C(=O)Nc1ccccc12` [Compound 116]: under 100 nM; `COc1cccc2[nH]c(C(=O)N[C@@H](CC(C)C)C(=O)N3C[C@]4(C[C@H]3C=O)C(=O)N(C)c3ccccc34)cc12` [Compound 119]: under 100 nM.
On the same count and under the same terms, as for `COc1cccc2[nH]c(C(=O)N[C@@H](CC(C)C)C(=O)N3C[C@]4(C[C@H]3C#N)C(=O)N(C)c3ccccc34)cc12` [Compound 120], the figure is 100 to 1000 nM; as for `COc1cccc2[nH]c(C(=O)N(C)[C@@H](CC(C)C)C(=O)N3C[C@]4(C[C@H]3C#N)C(=O)N(C)c3ccccc34)cc12` [Compound 121], under 100 nM.
Consider `CC(C)C[C@H](NC(=O)NCc1ccccc1)C(=O)N1C[C@]2(C[C@H]1C#N)C(=O)Nc1ccccc12` [Compound 122], for which the 50% inhibitory concentration (IC50) in assay [1] was under 100 nM.
As to `CN(C(=O)c1cnn(-c2ccccc2C(F)(F)F)c1)[C@@H](CC1CC1)C(=O)N1C[C@]2(C[C@H]1C#N)C(=O)Nc1ccccc12` [Compound 124], in assay [1], the IC50 is under 100 nM.
As to `[2H]C([2H])([2H])N(C(=O)c1cnn(C(C)(C)C)c1)[C@@H](CC1CC1)C(=O)N1C[C@]2(C[C@H]1C#N)C(=O)Nc1ccccc12` [Compound 125], in assay [2], the EC50 is under 100 nM.
